Assay results as given in PubChem BioAssay (NCI).
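A five-concentration, 48-hour dose response in 96-well plates underlies each endpoint, interpolated linearly between surrounding concentrations. Here, GI50 denotes the concentration required for 50% inhibition of growth. TGI marks complete inhibition of growth.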

What was measured:
Assay in all cases: NCI tumour cell line growth inhibition, 48 h
[1] = tested on: TK-10 renal
[2] = tested on: OVCAR-3 ovarian
[3] = tested on: U251 CNS
[4] = tested on: SK-MEL-5 melanoma
[5] = tested on: SF-295 CNS
[6] = tested on: SR leukemia
[7] = tested on: HCT-116 colon
[8] = tested on: HOP-62 NSCLC
[9] = tested on: SF-268 CNS
[10] = tested on: SNB-75 CNS
[11] = tested on: A498 renal
[12] = tested on: NCI-H460 lung
[13] = tested on: NCI-H522 lung
[14] = tested on: OVCAR-4 ovarian
[15] = tested on: UACC-257 melanoma
[16] = tested on: MALME-3M melanoma
[17] = tested on: MDA-MB-435
[18] = tested on: HCC-2998 colon
[19] = tested on: PC-3 prostate
[20] = tested on: SK-MEL-28 melanoma
[21] = tested on: MCF7 breast
[22] = tested on: CAKI-1 renal
[23] = tested on: 786-0 renal
[24] = tested on: EKVX NSCLC
[25] = tested on: SW-620 colon
[26] = tested on: HS 578T breast
[27] = tested on: T-47D breast
[28] = tested on: UACC-62 melanoma
[29] = tested on: LOX IMVI melanoma
[30] = tested on: RXF 393 renal
[31] = tested on: BT-549 breast
[32] = tested on: DU-145 prostate
[33] = tested on: SK-MEL-2 melanoma
[34] = tested on: ACHN renal
[35] = tested on: M14 melanoma
[36] = tested on: SK-OV-3 ovarian
[37] = tested on: HOP-92 NSCLC
[38] = tested on: HT29 colon
[39] = tested on: SF-539 CNS
[40] = tested on: MDA-MB-231 breast
[41] = tested on: OVCAR-5 ovarian
[42] = tested on: HCT-15 colon
[43] = tested on: A549 NSCLC
[44] = tested on: COLO 205 colon
[45] = tested on: UO-31 renal
[46] = tested on: KM12 colon

CCNCCNc1cc(-c2ccc(Cl)c(Cl)c2)c(C#N)c2nc3ccccc3n12
GI50 [1]: 1.69 µM
TGI [1]: 3.11 µM
GI50 [2]: 0.248 µM
TGI [2]: 0.58 µM
GI50 [3]: 0.757 µM
TGI [3]: 2.15 µM
GI50 [4]: 1.71 µM
TGI [4]: 3.12 µM
GI50 [5]: 1.81 µM
TGI [5]: 3.24 µM
GI50 [6]: 0.287 µM
TGI [6]: > 100 µM
GI50 [7]: 0.278 µM
TGI [7]: 1.08 µM
GI50 [8]: 1.62 µM
TGI [8]: 3.18 µM
GI50 [9]: 1.71 µM
TGI [9]: 3.33 µM
GI50 [10]: 1.46 µM
TGI [10]: 2.96 µM
GI50 [11]: 1.38 µM
TGI [11]: 2.88 µM
GI50 [12]: 0.485 µM
TGI [12]: 1.91 µM
GI50 [13]: 1.32 µM
TGI [13]: 2.8 µM
GI50 [14]: 1.23 µM
TGI [14]: 2.53 µM
GI50 [15]: 1.89 µM
TGI [15]: 3.52 µM
GI50 [16]: 1.76 µM
TGI [16]: 3.41 µM
GI50 [17]: 1.7 µM
TGI [17]: 3.14 µM
GI50 [18]: 1.69 µM
TGI [18]: 3.21 µM
GI50 [19]: 1.66 µM
TGI [19]: 3.19 µM
GI50 [20]: 1.9 µM
TGI [20]: 3.54 µM
GI50 [21]: 1.01 µM
TGI [21]: 2.46 µM
GI50 [22]: 1.56 µM
TGI [22]: 2.9 µM
GI50 [23]: 1.66 µM
TGI [23]: 3.18 µM
GI50 [24]: 1.75 µM
TGI [24]: 3.33 µM
GI50 [25]: 0.578 µM
TGI [25]: 2.07 µM
GI50 [26]: 1.9 µM
TGI [26]: 4.43 µM
GI50 [27]: 1.43 µM
TGI [27]: 3.2 µM
GI50 [28]: 1.82 µM
TGI [28]: 3.56 µM
GI50 [29]: 1.21 µM
TGI [29]: 2.53 µM
GI50 [30]: 1.5 µM
TGI [30]: 2.94 µM
GI50 [31]: 1.54 µM
TGI [31]: 2.9 µM
GI50 [32]: 1.44 µM
TGI [32]: 2.76 µM
GI50 [33]: 1.58 µM
TGI [33]: 3.07 µM
GI50 [34]: 1.39 µM
TGI [34]: 2.87 µM
GI50 [35]: 1.72 µM
TGI [35]: 3.24 µM
GI50 [36]: 1.79 µM
TGI [36]: 3.23 µM
GI50 [37]: 1.67 µM
TGI [37]: 3.28 µM
GI50 [38]: 0.369 µM
TGI [38]: 1.42 µM
GI50 [39]: 0.224 µM
TGI [39]: 0.58 µM
GI50 [40]: 1.21 µM
TGI [40]: 2.71 µM
GI50 [41]: 1.87 µM
TGI [41]: 3.55 µM
GI50 [42]: 0.629 µM
TGI [42]: 1.92 µM
GI50 [43]: 1.43 µM
TGI [43]: 3.01 µM
GI50 [44]: 0.421 µM
TGI [44]: 1.63 µM
GI50 [45]: 1.6 µM
TGI [45]: 3.12 µM
GI50 [46]: 1.6 µM
TGI [46]: 3.15 µM
